Source: PubChem BioAssay AID686920 (Broad Institute, 2013)
Active and inactive are the calls of the source.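 How the source made its calls: active means fitted curve reaching 35% inhibition at a dose no higher than twice the top valid tested dose; inconclusive means flat fit with 30 to 70% inhibition, or a poor fit; inactive means the rest, including activity in the opposite direction.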

system: A673 NR0B1-luciferase reporter, viability-normalised luminescence; experiment: suppressors of NR0B1-promoter luciferase reporter, dose response, EWS/Fli inhibitor project, luciferase luminescence, A673 cells, cherry-pick (AID 686920); details: not given

Structure (SMILES)	AC35
CCOc1ccc(C(c2c(NC(=O)c3ccccc3)sc(C)c2C)N2CCN(CCO)CC2)cc1 (configuration not stated)	46.3 µM
O=C(C[C@H]1C[C@H]2c3cc(NS(=O)(=O)c4ccc(F)cc4)ccc3O[C@H]2[C@H](CO)O1)NCc1ccc(Oc2ccccc2)cc1	6.22 µM
C[C@H](CO)N1C[C@H](C)[C@H](CN(C)CC2CCCCC2)Oc2ccc(NC(=O)Nc3cccc4ccccc34)cc2C1=O	43.3 µM
C[C@@H]1CN([C@@H](C)CO)S(=O)(=O)c2ccc(C#Cc3ccncc3)cc2O[C@H]1CN(C)S(=O)(=O)c1ccccc1	15.2 µM
C[C@@H]1CN([C@@H](C)CO)C(=O)Cc2cc(N(C)C)ccc2O[C@H]1CN(C)Cc1ccc(C(=O)Nc2ccccc2N)cc1	11.4 µM
O=C(O)c1ccc(N/N=C/c2c(F)cccc2Cl)cc1	4.61 µM
COc1ccc(N=C2C(=O)Nc3ccc(C)c(Br)c32)cc1	10 µM
CC(=O)Oc1ccc(-c2ccc(C(=O)Nc3cccc(S(=O)(=O)N4CCOCC4)c3)cc2)cc1	12.9 µM
COc1cccc(-c2cc(NC=O)c3ncc(-c4ccc(C(C)=O)cc4)n3c2)c1	6.25 µM
C[C@H](CO)N1C[C@H](C)[C@H](CN(C)Cc2ccccc2)Oc2ccc(NC(=O)CCCCCC(=O)Nc3ccccc3N)cc2CC1=O	5.93 µM
C[C@@H]1CN([C@@H](C)CO)S(=O)(=O)c2ccc(C#CC(C)(C)O)cc2O[C@H]1CN(C)Cc1ccc(-c2ccccc2)cc1	2.8 µM
OC[C@H]1[C@@H](c2ccc(C#CC3CCCC3)cc2)[C@@H]2CN(CCC(F)(F)F)CCCCN12	9.24 µM
Cc1nc2ncccn2c1-c1csc(Nc2ccc(O)cc2)n1	8.68 µM
O=C(C[C@@H]1C[C@H]2c3cc(NS(=O)(=O)c4ccc(F)cc4)ccc3O[C@H]2[C@H](CO)O1)NCc1ccc(-c2ccccc2)cc1	2.03 µM
CCCCCCCCn1c2c(c(=N)c3c1CCC3)CCCC2	5.73 µM
C(=Cc1nc2ccccc2o1)c1ccc2c(c1)OCO2	4.5 µM
O=C(O)c1ccccc1C(=O)Nc1ccc(Oc2ccc3ccccc3c2)cc1	5.69 µM
COc1cccc(CN2CCC2(C)C(=O)Nc2cccc3cccnc23)c1F (configuration not stated)	14.7 µM
Cc1c(Cl)cccc1NC(=O)CCC(=O)N/N=C/c1ccc[nH]1	4.78 µM

Structure (SMILES)	AC35
C[C@H]1CN([C@@H](C)CO)C(=O)c2cc(N(C)C)ccc2O[C@@H]1CN(C)Cc1ccc(C(=O)Nc2ccccc2N)cc1	9.36 µM
COc1ccc(N=C(NN)c2ccc3ccccc3n2)cc1	21.8 µM
COc1ccc(Cn2cc3c(-c4ccc(F)cc4)nnc-3c3cc(OC)c(OC)cc32)cc1	14.1 µM
COc1ccc(/C=C2\SC(=O)N(CCCC(=O)Nc3ccc(C(=O)O)cc3)C2=O)cc1	0.504 µM
COc1ccc(C2=NNC(=Nc3cc(S(=O)(=O)N(C)C)ccc3C)SC2)c(OC)c1	9.53 µM
Cc1cc(C(=O)Nc2ccc3c(c2)C(=O)N(C)[C@@H]2CC[C@@H](CC(=O)NCc4ccc(-c5ccccc5)cc4)O[C@H]2CO3)no1	6.29 µM
O=C1c2ccccc2C(=O)N1CCCCNc1ccccc1	3.44 µM
OCC1OC(n2cnc3c(NCc4ccco4)ncnc32)C(O)C1O (configuration not stated)	2.81 µM
CCCNC(=O)N1[C@H](C#N)[C@H](c2ccc(C#Cc3ccc(F)cc3)cc2)[C@H]1CO	10.1 µM
Cc1ccc(OCCNC(=O)c2cccc(S(=O)(=O)NCc3ccccc3)c2)cc1	3.98 µM
C[C@H](CO)N1C[C@H](C)[C@H](CN(C)Cc2ccc(Oc3ccccc3)cc2)Oc2ccc(NC(=O)CCCCCC(=O)Nc3ccccc3N)cc2CC1=O	4.15 µM
CC(=NNc1ccc2ccccc2n1)c1ccccc1O	5.09 µM
C=C1C(=O)C=C[C@]2(C)C[C@@H]3OC(=O)[C@](C)(O)[C@H]3C[C@@H]12	10.7 µM
COc1ccc(/C=C2/NC(=O)N(CC(=O)Nc3cccc(C)c3)C2=O)cc1O	9.76 µM
C(=Cc1c[nH]c2ccccc12)c1ccc2ccccc2n1	2.22 µM
O=C(NC1CCCC1)N1CCCCN2[C@@H](CO)[C@@H](c3ccc(/C=C/c4ccccc4)cc3)[C@@H]2C1	14.3 µM
C(=N\Nc1nc2ccccc2s1)/c1ccccn1	0.77 µM
C[C@H](CO)N1C[C@H](C)[C@H](CN(C)Cc2ccc(C(=O)Nc3ccccc3N)cc2)Oc2ccc(NC(=O)C3CC3)cc2CC1=O	37.8 µM
O=C(COC(=O)c1ccc[nH]c1=O)Nc1ccc(N2CCCCC2)cc1	0.283 µM

system: not listed separately; experiment: as above; details: A673 NR0B1-luciferase reporter, viability-normalised luminescence; at 21 µM (top of the series)

Structure (SMILES)	activity change, negative = inhibition
Cc1ccc(Cc2c(-c3ccco3)nc3c(C)cc(Br)cn23)cc1	77.8% (inactive)
COC(=O)C[C@@H]1CC[C@@H]2[C@@H](COc3ccc(NC(=O)Nc4cccc(F)c4)cc3C(=O)N2C)O1	-4.28% (inactive)
COCc1cc(C)nc2sc(C(=O)NCCO)c(-n3cccc3)c12	112% (inactive)
COc1cc(C(c2c(C)[nH][nH]c2=O)c2c(C)[nH][nH]c2=O)ccc1OC(C)C	28.1% (inactive)
O=C1CCCC2=C1C(c1ccccn1)Nc1ccc(C(=O)c3ccccc3)cc1N2 (configuration not stated)	8.98% (inactive)

same assay, conditions: A673 NR0B1-luciferase reporter, viability-normalised luminescence; at 68 µM (top of the series)

Structure (SMILES)	activity change, negative = inhibition
C(=C\c1ccc(C2[C@H]3CNC[C@@H]2N3Cc2ccccn2)cc1)/c1ccccc1 (some centres not stated)	32.3% (inactive)
COC(=O)C[C@@H]1CC[C@@H]2[C@H](COc3ccc(NC(=O)Nc4cccc(Cl)c4)cc3C(=O)N2C)O1	-19.3% (inactive)
COc1cc(/C=N\Nc2nc(-c3ccc(C)cc3)c(NC(C)=O)s2)ccc1O	80.8% (inactive)
COC(=O)c1c(C)[nH]c(/C=N/Nc2ccccc2)c1C	38.6% (inactive)
CCc1ccc(Cn2ncc3c(C(=O)O)cc(C)nc32)cc1	13.8% (inactive)
COC(=O)C(CC#Cc1ccc2c(c1)[C@]1(C(=O)N2)[C@H](c2ccc(OCCO)cc2)N2[C@H](c3ccccc3)[C@H](c3ccccc3)OC(=O)[C@H]2[C@@H]1C(=O)N1CCN(c2ncccn2)CC1)C(=O)OC	0.883% (inactive)
Cc1ccc(N=C2NC(=O)/C(=C\c3cccs3)S2)cc1C	48.8% (inactive)
CCS(=O)(=O)N1Cc2ccccc2CC1C(=O)Nc1nnc(SCc2ccc(C#N)cc2)s1 (configuration not stated)	-0.731% (inactive)
Cc1ccsc1C(=O)OCC(=O)NCCC1=CCCCC1	97.5% (inactive)
COC(=O)C[C@@H]1CC[C@@H]2[C@H](COc3ccc(NC(=O)Nc4cccc(C#N)c4)cc3C(=O)N2C)O1	-24.9% (inactive)
Cc1occc1-c1n[nH]c(=S)n1C	10.2% (inactive)
CN(C)C(=O)c1ccc(-c2ccccc2[C@@H]2[C@@H](CO)N(C(=O)C3CC3)[C@H]2C#N)cc1	-1.25% (inactive)
N=c1ccn2c(n1)O[C@H]1[C@H](O)[C@@H](CO)O[C@H]12	-26.9% (inactive)
Nc1ccn([C@@H]2O[C@H](CO)[C@@H](O)C2O)c(=O)n1 (some centres not stated)	-31.3% (inactive)
CN(C)[C@@H]1CCC[C@@H]1OC(=O)C(c1ccccc1)c1ccccc1	12.1% (inactive)
CN(C(=O)COC(=O)c1cc(-c2ccccc2Cl)nc2ccccc12)C1CCS(=O)(=O)C1 (configuration not stated)	9.88% (inactive)
CC(NC(=O)c1ccco1)c1nc(-c2ccc(C(C)(C)C)cc2)no1 (configuration not stated)	73.3% (inactive)
c1cncc(-c2ccc([C@@H]3[C@H]4CNC[C@@H]3N4CC3CCOCC3)cc2)c1	-7.31% (inactive)
COC(=O)[C@H]1[C@H](CO)[C@H]2Cn3c(ccc(-c4ccccc4F)c3=O)[C@@H]1N2CC1CCCC1	-18% (inactive)
